The results in this text go back to patent US10407429B2, “Pyrazolo[1,5-a]triazin-4-amine derivatives useful in therapy” (Curovir AB, priority 2015, dated 2019).

What all share (type): cell-based
For one test, the system named is coxsackie B5virus. Kind of test: Antiviral CPE assay in mammalian cell culture. To be noted: read-out: inhibition capacity (IC50) B5.
For another test, the system named is Enterovirus 6. Kind of test: Antiviral CPE assay in mammalian cell culture. Particulars: prevention of viral CPE, read-out: inhibition capacity (IC50) EV6.
For the next test, the system named is polio virus Sabin 1. Kind of test: organism not typed. To be noted: read-out: inhibition capacity (IC50) Polio 1.
The test system of another test is coxsackie B2 virus. Kind of test: Antiviral CPE assay in mammalian cell culture. Particulars: read-out: inhibition capacity (IC50) B2.
The next test relates to Enterovirus 30. Kind of test: Antiviral CPE assay in mammalian cell culture. To be noted: Enterovirus, read-out: inhibition capacity (IC50) EV30.
The next test relates to Enterovirus 71. Kind of test: Antiviral CPE assay in mammalian cell culture. To be noted: Enterovirus A, EV71, prevention of viral CPE, read-out: inhibition capacity (IC50) EV71.
The next test concerns coxsackie B1 virus. Kind of test: Antiviral CPE assay in mammalian cell culture. Particulars: read-out: inhibition capacity (IC50) Bl.
The test system of a further test is coxsackie B3 virus. Kind of test: Antiviral CPE assay in mammalian cell culture. To be noted: Enterovirus B, B3, read-out: inhibition capacity (IC50) B3.
In another test the test system is Enterovirus 68. Kind of test: Antiviral CPE assay in mammalian cell culture. Particulars: Enterovirus D, EV68, read-out: inhibition capacity (IC50) EV68.
A further test has as its system coxsackie B 4 virus. Nature of the test: Antiviral CPE assay in mammalian cell culture. To be noted: Enterovirus B, B4, read-out: inhibition capacity (IC50) B4.

Consider `COc1ccc(-c2c(C)nn3c(NCc4ccc(F)cc4)nc(C)nc23)cc1OC` [Example 1, 8-(3,4-dimethoxyphenyl)-N-[(4-fluorophenyl)methyl]-2,7-dimethyl-pyrazolo[1,5-a][1,3,5]triazin-4-amine], for which the concentration for half-maximal inhibition (IC50) – broadly, the concentration needed to halve the response being measured – with coxsackie B5virus is < 100 nM; in the test with Enterovirus 6, < 1000 nM; with polio virus Sabin 1 it was < 10 nM; with coxsackie B2 virus it was < 10 nM; in the test on Enterovirus 30 it was < 100 nM; in the test with Enterovirus 71, < 10 nM. Besides, the results for the IC50 with coxsackie B1 virus and in the test with coxsackie B3 virus were < 100 nM and < 1000 nM, respectively.
`COc1ccc(-c2c(C)nn3c(NCc4ccc(C(F)(F)F)cc4)nc(C)nc23)cc1OC` [Example 2, 8-(3,4-dimethoxyphenyl)-2,7-dimethyl-N-[[4-(trifluoromethyl)phenyl]methyl]pyrazolo[1,5-a][1,3,5]triazin-4-amine]: the IC50 in the test with coxsackie B5virus is < 100 nM; in the test with Enterovirus 6, < 1000 nM; in the test with polio virus Sabin 1, < 100 nM; in the test on Enterovirus 68, < 1000 nM; in the test with coxsackie B 4 virus it was < 100 nM; in the test with coxsackie B2 virus it was < 100 nM. In addition, the 50% inhibitory concentration (IC50) in the test on Enterovirus 30 is < 100 nM; with Enterovirus 71, < 1000 nM; in the test on coxsackie B1 virus, < 100 nM; in the test with coxsackie B3 virus, < 1000 nM.
Regarding `COc1ccc(-c2c(C)nn3c(NCc4ccc(C)cc4)nc(C)nc23)cc1OC` [Example 3, 8-(3,4-dimethoxyphenyl)-2,7-dimethyl-N-(p-tolylmethyl)pyrazolo[1,5-a][1,3,5]triazin-4-amine], the IC50 with coxsackie B5virus is < 100 nM; with Enterovirus 6 it was < 1000 nM; in the test on polio virus Sabin 1 it was < 100 nM; in the test with Enterovirus 68, < 100 nM; in the test with coxsackie B 4 virus, < 100 nM; in the test on coxsackie B2 virus, < 100 nM. For the same compound, the IC50 in the test on Enterovirus 30, in the test on Enterovirus 71, in the test on coxsackie B1 virus and in the test with coxsackie B3 virus was < 100 nM each time.
`COc1ccc(-c2c(C)nn3c(NCc4ccc(C(C)C)cc4)nc(C)nc23)cc1OC` [Example 4, 8-(3,4-dimethoxyphenyl)-N-[(4-isopropylphenyl)methyl]-2,7-dimethyl-pyrazolo[1,5-a][1,3,5]triazin-4-amine]: the IC50 in the test with coxsackie B5virus, with Enterovirus 6, in the test with polio virus Sabin 1, in the test with Enterovirus 68, in the test on coxsackie B 4 virus and with coxsackie B2 virus was < 1000 nM in each case. Also, the IC50 with Enterovirus 30, in the test with Enterovirus 71, with coxsackie B1 virus and in the test on coxsackie B3 virus was < 1000 nM throughout.
Turning to `COc1ccc(-c2c(C)nn3c(NCc4ccccn4)nc(C)nc23)cc1OC` [Example 5, 8-(3,4-dimethoxyphenyl)-2,7-dimethyl-N-(2-pyridylmethyl)pyrazolo[1,5-a][1,3,5]triazin-4-amine], the IC50 was < 1000 nM with coxsackie B5virus; < 1000 nM in the test with Enterovirus 6; < 100 nM in the test with polio virus Sabin 1; < 1000 nM in the test on Enterovirus 68; < 1000 nM in the test with coxsackie B 4 virus; < 100 nM with coxsackie B2 virus. The concentration for half-maximal inhibition (IC50) in the test with Enterovirus 30 is < 1000 nM; in the test on Enterovirus 71 it was < 1000 nM; in the test with coxsackie B1 virus, < 100 nM; in the test with coxsackie B3 virus, < 1000 nM.
Regarding `COc1ccc(-c2c(C)nn3c(NCCc4ccc(Cl)cc4)nc(C)nc23)cc1OC` [Example 7, N-[2-(4-chlorophenyl)ethyl]-8-(3,4-dimethoxyphenyl)-2,7-dimethyl-pyrazolo[1,5-a][1,3,5]triazin-4-amine], the IC50 in the test with coxsackie B5virus, with Enterovirus 6, in the test with polio virus Sabin 1, in the test with Enterovirus 68, with coxsackie B 4 virus and in the test on coxsackie B2 virus was < 1000 nM throughout. Moreover, the IC50 in the test on Enterovirus 30, in the test on Enterovirus 71, in the test with coxsackie B1 virus and with coxsackie B3 virus was < 1000 nM throughout.
`COc1ccc(-c2c(C)nn3c(NCc4ccc(Cl)cc4)nc(C)nc23)cc1OC` [Example 8, N-[(4-chlorophenyl)methyl]-8-(3,4-dimethoxyphenyl)-2,7-dimethyl-pyrazolo[1,5-a][1,3,5]triazin-4-amine]: the IC50 in the test on coxsackie B5virus is < 1000 nM; in the test on Enterovirus 6 it was < 1000 nM; with polio virus Sabin 1, < 100 nM; with Enterovirus 68, < 100 nM; in the test on coxsackie B 4 virus it was < 100 nM; with coxsackie B2 virus, < 100 nM. Moreover, the IC50 with Enterovirus 30 was < 100 nM; in the test on Enterovirus 71, < 1000 nM; in the test on coxsackie B1 virus, < 100 nM; in the test with coxsackie B3 virus, < 100 nM.
In the case of `COc1ccc(-c2c(C)nn3c(NCc4ccc(NC(C)=O)cc4)nc(C)nc23)cc1OC` [Example 9, N-[4-[[[8-(3,4-dimethoxyphenyl)-2,7-dimethyl-pyrazolo[1,5-a][1,3,5]triazin-4-yl]amino]methyl]phenyl]acetamide], the IC50 in the test with coxsackie B5virus was < 100 nM; in the test on Enterovirus 6, < 100 nM; with polio virus Sabin 1 it was < 10 nM; in the test on Enterovirus 68 it was < 100 nM; in the test on coxsackie B 4 virus, < 100 nM; in the test with coxsackie B2 virus, < 100 nM. For the same compound, the IC50 is < 100 nM in the test with Enterovirus 30, < 100 nM in the test on Enterovirus 71, < 1000 nM in the test on coxsackie B1 virus and < 100 nM in the test with coxsackie B3 virus.
For `COc1ccc(CNc2nc(C)nc3c(-c4ccc(OC)c(OC)c4)c(C)nn23)cc1` [Example 10, 8-(3,4-dimethoxyphenyl)-N-[(4-methoxyphenyl)methyl]-2,7-dimethyl-pyrazolo[1,5-a][1,3,5]triazin-4-amine], the IC50 in the test on coxsackie B5virus was < 100 nM; in the test with Enterovirus 6, < 1000 nM; in the test with polio virus Sabin 1, < 100 nM; in the test with Enterovirus 68 it was < 100 nM; in the test with coxsackie B 4 virus it was < 100 nM; in the test on coxsackie B2 virus it was < 100 nM. The IC50 with Enterovirus 30 is < 100 nM; with Enterovirus 71, < 1000 nM; in the test on coxsackie B1 virus, < 100 nM; in the test on coxsackie B3 virus, < 1000 nM.
In the case of `COc1ccc(-c2c(C)nn3c(NCc4cccc(S(C)(=O)=O)c4)nc(C)nc23)cc1OC` [Example 11, 8-(3,4-dimethoxyphenyl)-2,7-dimethyl-N-[(3-methylsulfonylphenyl)methyl]pyrazolo[1,5-a][1,3,5]triazin-4-amine], the IC50 in the test on coxsackie B5virus is < 10 nM; in the test with Enterovirus 6, < 100 nM; with polio virus Sabin 1, < 10 nM; with Enterovirus 68 it was < 100 nM; with coxsackie B 4 virus, < 10 nM; in the test on coxsackie B2 virus, < 10 nM. Further, the IC50 in the test on Enterovirus 30 is < 10 nM; in the test on Enterovirus 71 it was < 100 nM; in the test on coxsackie B1 virus it was < 10 nM; with coxsackie B3 virus it was < 10 nM.
`COc1ccc(-c2c(C)nn3c(NCc4cc[n+]([O-])cc4)nc(C)nc23)cc1OC` [Example 12, 8-(3,4-dimethoxyphenyl)-2,7-dimethyl-N-[(1-oxidopyridin-1-ium-4-yl)methyl]pyrazolo[1,5-a][1,3,5]triazin-4-amine]: the half-inhibitory concentration (IC50) with coxsackie B5virus, with polio virus Sabin 1, in the test on Enterovirus 68, with coxsackie B 4 virus, with coxsackie B2 virus and with Enterovirus 30 was < 1000 nM each time. Also, the IC50 in the test with Enterovirus 71, with coxsackie B1 virus and in the test on coxsackie B3 virus was < 1000 nM each time.
With `COc1ccc(CNc2nc(C)nc3c(-c4ccc(OC)c(OC)c4)c(C)nn23)cn1` [Example 13, 8-(3,4-dimethoxyphenyl)-N-[(6-methoxy-3-pyridyl)methyl]-2,7-dimethyl-pyrazolo[1,5-a][1,3,5]triazin-4-amine], the IC50 in the test with coxsackie B5virus is < 100 nM; in the test on polio virus Sabin 1, < 10 nM; with Enterovirus 68, < 100 nM; in the test on coxsackie B 4 virus it was < 100 nM; with coxsackie B2 virus, < 100 nM; in the test with Enterovirus 30, < 10 nM. Further, the IC50 in the test with Enterovirus 71 was < 100 nM; in the test on coxsackie B1 virus it was < 10 nM; with coxsackie B3 virus, < 100 nM.
With `COc1ccc(-c2c(C)nn3c(NCC4CCCCC4)nc(C)nc23)cc1OC` [Example 15, N-(cyclohexylmethyl)-8-(3,4-dimethoxyphenyl)-2,7-dimethyl-pyrazolo[1,5-a][1,3,5]triazin-4-amine], the IC50 with coxsackie B5virus, with Enterovirus 6, in the test with polio virus Sabin 1, in the test with Enterovirus 68, with coxsackie B 4 virus and with coxsackie B2 virus was < 1000 nM throughout. Moreover, the IC50 in the test on Enterovirus 30, in the test with Enterovirus 71, with coxsackie B1 virus and in the test with coxsackie B3 virus was < 1000 nM throughout.
In the case of `COc1ccc(-c2c(C)nn3c(NCc4ccc5c(c4)OCO5)nc(C)nc23)cc1OC` [Example 16, N-(1,3-benzodioxol-5-ylmethyl)-8-(3,4-dimethoxyphenyl)-2,7-dimethyl-pyrazolo[1,5-a][1,3,5]triazin-4-amine], the IC50 in the test with coxsackie B5virus is < 100 nM; in the test on Enterovirus 6, < 1000 nM; in the test with polio virus Sabin 1, < 100 nM; in the test on Enterovirus 68, < 100 nM; in the test on coxsackie B 4 virus it was < 10 nM; in the test with coxsackie B2 virus, < 100 nM. For the same compound, the IC50 with Enterovirus 30, in the test on Enterovirus 71, in the test on coxsackie B1 virus and with coxsackie B3 virus was < 100 nM in each case.
Regarding `COc1ccc(-c2c(C)nn3c(NCc4ccc(O)cc4)nc(C)nc23)cc1OC` [Example 17, 4-[[[8-(3,4-dimethoxyphenyl)-2,7-dimethyl-pyrazolo[1,5-a][1,3,5]triazin-4-yl]amino]methyl]phenol], the IC50 was < 10 nM with coxsackie B5virus; < 100 nM with Enterovirus 6; < 10 nM in the test on polio virus Sabin 1; < 100 nM in the test with Enterovirus 68; < 100 nM with coxsackie B 4 virus; < 10 nM in the test with coxsackie B2 virus. Besides, the IC50 in the test on Enterovirus 30 was < 100 nM; in the test on Enterovirus 71, < 10 nM; in the test with coxsackie B1 virus, < 10 nM; in the test on coxsackie B3 virus it was < 100 nM.
